biological target: PIK3CD (Human) (UniProt O00329); assay: Inhibition of PIK3CD Kinase Activity
Sequence (O00329 whole entry, looked up): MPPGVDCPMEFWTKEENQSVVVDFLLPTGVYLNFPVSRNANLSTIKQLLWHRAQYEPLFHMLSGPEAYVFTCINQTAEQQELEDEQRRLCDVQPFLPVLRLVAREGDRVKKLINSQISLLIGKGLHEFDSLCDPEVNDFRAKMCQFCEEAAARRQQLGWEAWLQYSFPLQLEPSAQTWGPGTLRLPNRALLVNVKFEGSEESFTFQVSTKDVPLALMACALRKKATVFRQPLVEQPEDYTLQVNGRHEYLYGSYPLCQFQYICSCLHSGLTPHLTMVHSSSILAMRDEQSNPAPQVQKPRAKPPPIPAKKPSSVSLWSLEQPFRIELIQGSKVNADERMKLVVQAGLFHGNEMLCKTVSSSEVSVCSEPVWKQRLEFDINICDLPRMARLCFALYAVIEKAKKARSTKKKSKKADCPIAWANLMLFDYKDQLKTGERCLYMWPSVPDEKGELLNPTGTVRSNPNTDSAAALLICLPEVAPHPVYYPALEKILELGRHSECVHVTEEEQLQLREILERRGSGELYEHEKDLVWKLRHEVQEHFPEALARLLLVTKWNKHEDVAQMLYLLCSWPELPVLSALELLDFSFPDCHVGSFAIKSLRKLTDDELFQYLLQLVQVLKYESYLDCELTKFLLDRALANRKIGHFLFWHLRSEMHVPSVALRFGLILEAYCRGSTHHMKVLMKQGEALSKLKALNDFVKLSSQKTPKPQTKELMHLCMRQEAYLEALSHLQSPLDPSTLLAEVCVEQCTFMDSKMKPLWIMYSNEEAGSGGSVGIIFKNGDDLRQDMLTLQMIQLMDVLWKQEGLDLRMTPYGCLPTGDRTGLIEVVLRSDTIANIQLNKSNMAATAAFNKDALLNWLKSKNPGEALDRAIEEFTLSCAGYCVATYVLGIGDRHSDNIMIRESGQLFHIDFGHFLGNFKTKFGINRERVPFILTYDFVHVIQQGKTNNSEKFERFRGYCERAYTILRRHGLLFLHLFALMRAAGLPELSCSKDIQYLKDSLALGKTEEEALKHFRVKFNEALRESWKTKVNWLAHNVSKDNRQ

IC50, < 500 nM:
CCn1c(CN2CCc3ccccc3C2)nc2c(N3CCOCC3)nc(-c3cccc4[nH]ccc34)nc21
CCn1c(CN2CCC(N3CCC3)CC2)nc2c(N3CCOCC3)nc(-c3c(F)ccc4[nH]ccc34)nc21
Cn1c(CN2CCN(C(C)(C)C(N)=O)CC2)nc2c(N3CCOCC3)nc(-c3c(F)ccc4[nH]ccc34)nc21
CCn1c(CN2CCC(N3CC(F)C3)CC2)nc2c(N3CCOCC3)nc(-c3c(F)ccc4[nH]ccc34)nc21
CCn1c(CN2CCc3ccccc3C2)nc2c(N3CCOCC3)nc(-c3c(F)ccc4[nH]ccc34)nc21
CCn1c(CN2CCC(N3CCCC3=O)CC2)nc2c(N3CCOCC3)nc(-c3c(F)ccc4[nH]ccc34)nc21
CCn1c(CN2C[C@@H](C)N(CC(N)=O)[C@@H](C)C2)nc2c(N3CCOCC3)nc(-c3c(F)ccc4[nH]ccc34)nc21
CCn1c(CN2CCC(N3CCOC3=O)CC2)nc2c(N3CCOCC3)nc(-c3c(F)ccc4[nH]ccc34)nc21
CCn1c(CN2CCC(n3cccn3)CC2)nc2c(N3CCOCC3)nc(-c3c(F)ccc4[nH]ccc34)nc21
CCn1c(CN2CCC(N3CCC3=O)CC2)nc2c(N3CCOCC3)nc(-c3cccc4[nH]ccc34)nc21
CCn1c(CN2CC(N3CCOCC3)C2)nc2c(N3CCOCC3)nc(-c3c(F)ccc4[nH]ccc34)nc21
CCn1c(CN2CCC(C(=O)O)CC2)nc2c(N3CCOCC3)nc(-c3c(F)ccc4[nH]ccc34)nc21
CCn1c(CN2CCN3CCC[C@H]3C2)nc2c(N3CCOCC3)nc(-c3cccc4[nH]ccc34)nc21
CCn1c(CN2CC(=O)NC(C)(C)C2)nc2c(N3CCOCC3)nc(-c3c(F)ccc4[nH]ccc34)nc21
CCn1c(CN2CCC(N3CCCCC3=O)CC2)nc2c(N3CCOCC3)nc(-c3c(F)ccc4[nH]ccc34)nc21
CCn1c(CN2CCC(C(=O)O)(N3CCOCC3)CC2)nc2c(N3CCOCC3)nc(-c3c(F)ccc4[nH]ccc34)nc21
CCn1c(CN2CCC(N3CCOC3=O)CC2)nc2c(N3CCOCC3)nc(-c3cccc4[nH]ccc34)nc21
CCn1c(CN2CCN(C3CCS(=O)(=O)CC3)CC2)nc2c(N3CCOCC3)nc(-c3c(F)ccc4[nH]ccc34)nc21
CCn1c(CN2CCC(N(C)S(C)(=O)=O)CC2)nc2c(N3CCOCC3)nc(-c3c(F)ccc4[nH]ccc34)nc21
CCn1c(CN2CCC(N(C)C)CC2)nc2c(N3CCOCC3)nc(-c3c(F)ccc4[nH]ccc34)nc21
CCn1c(CN2CCOC(C)(C)C2)nc2c(N3CCOCC3)nc(-c3cccc4[nH]ccc34)nc21
CCn1c(CN2CC(N(C)C(C)(C)C(N)=O)C2)nc2c(N3CCOCC3)nc(-c3c(F)ccc4[nH]ccc34)nc21
CCn1c(CN2CCC(n3cccn3)CC2)nc2c(N3CCOCC3)nc(-c3cccc4[nH]ccc34)nc21
CCn1c(CN2CCN3CCOC[C@H]3C2)nc2c(N3CCOCC3)nc(-c3c(F)ccc4[nH]ccc34)nc21
CCn1c(CN2CCN(C(C)C)C(=O)C2)nc2c(N3CCOCC3)nc(-c3c(F)ccc4[nH]ccc34)nc21
Cn1c(CN2CCN(C(C)(C)C(N)=O)CC2)nc2c(N3CCOCC3)nc(-c3cccc4[nH]ccc34)nc21
CCn1c(CN2CCC(N3CCC3=O)CC2)nc2c(N3CCOCC3)nc(-c3c(F)ccc4[nH]ccc34)nc21
CCn1c(CN2CC(NC(C)(C)C(N)=O)C2)nc2c(N3CCOCC3)nc(-c3c(F)ccc4[nH]ccc34)nc21
CCn1c(CN2CCC3(CCNC3=O)CC2)nc2c(N3CCOCC3)nc(-c3c(F)ccc4[nH]ccc34)nc21
CCn1c(CN2CCN(C(C)(C)C(N)=O)CC2)nc2c(N3CCOCC3)nc(-c3c(F)ccc4[nH]ccc34)nc21
CCn1c(CN2CC(=O)NC(C)(C)C2)nc2c(N3CCOCC3)nc(-c3cccc4[nH]ccc34)nc21
CCn1c(CN2CCC(N3CCOCC3)CC2)nc2c(N3CCOCC3)nc(-c3cccc4[nH]ccc34)nc21
CCn1c(CN2CC3COCC(C2)N3)nc2c(N3CCOCC3)nc(-c3c(F)ccc4[nH]ccc34)nc21
CCn1c(CN2CCC(N3CCCCC3=O)CC2)nc2c(N3CCOCC3)nc(-c3cccc4[nH]ccc34)nc21
CCn1c(CN2CC[C@H](NC(C)(C)C(N)=O)C2)nc2c(N3CCOCC3)nc(-c3c(F)ccc4[nH]ccc34)nc21
CCn1c(CN2CCN(C3CCOCC3)CC2)nc2c(N3CCOCC3)nc(-c3cccc4[nH]ccc34)nc21
CCn1c(CN2CCN3CCC[C@H]3C2)nc2c(N3CCOCC3)nc(-c3c(F)ccc4[nH]ccc34)nc21
CCn1c(CN2C[C@@H](C)N(CC(N)=O)[C@@H](C)C2)nc2c(N3CCOCC3)nc(-c3cccc4[nH]ccc34)nc21
CCn1c(CN2CCN3CCOC[C@H]3C2)nc2c(N3CCOCC3)nc(-c3cccc4[nH]ccc34)nc21
CCn1c(CN2CCN(C(C)(C)C(N)=O)CC2)nc2c(N3CCOCC3)nc(-c3cccc4[nH]ccc34)nc21
CCn1c(CN2CCC(c3cc[nH]n3)CC2)nc2c(N3CCOCC3)nc(-c3cccc4[nH]ccc34)nc21
CN(C)C1CCN(Cc2nc3c(N4CCOCC4)nc(-c4c(F)ccc5[nH]ccc45)nc3[nH]2)CC1
CCn1c(CN2CCC(N3CC(F)(F)C3)CC2)nc2c(N3CCOCC3)nc(-c3c(F)ccc4[nH]ccc34)nc21
CCn1c(CN2CC(N(C)C(C)(C)C(N)=O)C2)nc2c(N3CCOCC3)nc(-c3cccc4[nH]ccc34)nc21
CCn1c(CN2CCN(CC(F)(F)F)CC2)nc2c(N3CCOCC3)nc(-c3c(F)ccc4[nH]ccc34)nc21
CCn1c(CN2CCC3(CC2)CNC(=O)C3)nc2c(N3CCOCC3)nc(-c3c(F)ccc4[nH]ccc34)nc21
CCn1c(CN2CCC(C(N)=O)CC2)nc2c(N3CCOCC3)nc(-c3c(F)ccc4[nH]ccc34)nc21
CCn1c(CN2CCN(CC(N)=O)C(C)(C)C2)nc2c(N3CCOCC3)nc(-c3cccc4[nH]ccc34)nc21
CCn1c(CN2CCC(N3CC(F)C3)CC2)nc2c(N3CCOCC3)nc(-c3cccc4[nH]ccc34)nc21
CCn1c(CN2CCN3C(=O)COC[C@H]3C2)nc2c(N3CCOCC3)nc(-c3c(F)ccc4[nH]ccc34)nc21
CCn1c(CN2CCC3(CC2)CNC(=O)CO3)nc2c(N3CCOCC3)nc(-c3cccc4[nH]ccc34)nc21
CCn1c(CN2CCC(N3CCCC3=O)CC2)nc2c(N3CCOCC3)nc(-c3cccc4[nH]ccc34)nc21
CCn1c(CN2CCC(N3CCOCC3)CC2)nc2c(N3CCOCC3)nc(-c3c(F)ccc4[nH]ccc34)nc21
CCn1c(CN2CCC(N3CCS(=O)(=O)CC3)CC2)nc2c(N3CCOCC3)nc(-c3cccc4[nH]ccc34)nc21
c1cc(-c2nc(N3CCOCC3)c3nc(CN4CCN5CCOC[C@H]5C4)[nH]c3n2)c2cc[nH]c2c1
CC(C)(C(N)=O)N1CCN(Cc2nc3c(N4CCOCC4)nc(-c4cccc5[nH]ccc45)nc3[nH]2)CC1
CCn1c(CN2CCC(N(C)C)CC2)nc2c(N3CCOCC3)nc(-c3cccc4[nH]ccc34)nc21
CN(C)C1CCN(Cc2nc3c(N4CCOCC4)nc(-c4cccc5[nH]ccc45)nc3[nH]2)CC1
CCn1c(CN2CCC(C)(C(N)=O)CC2)nc2c(N3CCOCC3)nc(-c3c(F)ccc4[nH]ccc34)nc21
CCn1c(CN2CCN(CC(N)=O)[C@@H](C(C)C)C2)nc2c(N3CCOCC3)nc(-c3c(F)ccc4[nH]ccc34)nc21
CCn1c(CN2CCN(CC(F)(F)F)CC2)nc2c(N3CCOCC3)nc(-c3cccc4[nH]ccc34)nc21
CCn1c(CN2CCOC(C)(C)C2)nc2c(N3CCOCC3)nc(-c3c(F)ccc4[nH]ccc34)nc21
CCn1c(CN2CCC3(CCNC3=O)CC2)nc2c(N3CCOCC3)nc(-c3cccc4[nH]ccc34)nc21
CCn1c(CN2CCC3(CC2)CNC(=O)C3)nc2c(N3CCOCC3)nc(-c3cccc4[nH]ccc34)nc21
CCn1c(CN2CCN(C3CCOCC3)CC2)nc2c(N3CCOCC3)nc(-c3c(F)ccc4[nH]ccc34)nc21
CC(C)(C(N)=O)N1CCN(Cc2nc3c(N4CCOCC4)nc(-c4c(F)ccc5[nH]ccc45)nc3n2CCO)CC1
CCn1c(CN2CCC(N3CCOCC3=O)CC2)nc2c(N3CCOCC3)nc(-c3c(F)ccc4[nH]ccc34)nc21
CCn1c(CN2CCN(CC(N)=O)C(C)(C)C2)nc2c(N3CCOCC3)nc(-c3c(F)ccc4[nH]ccc34)nc21
CCn1c(CN2CCN(C3CCS(=O)(=O)CC3)CC2)nc2c(N3CCOCC3)nc(-c3cccc4[nH]ccc34)nc21
CCn1c(CN2CCC3(CC2)CNC(=O)CO3)nc2c(N3CCOCC3)nc(-c3c(F)ccc4[nH]ccc34)nc21
CCn1c(CN2CC(NC(C)(C)C(N)=O)C2)nc2c(N3CCOCC3)nc(-c3cccc4[nH]ccc34)nc21
CCn1c(CN2CCC(N3CC(F)(F)C3)CC2)nc2c(N3CCOCC3)nc(-c3cccc4[nH]ccc34)nc21
CCn1c(CN2CCC(C(N)=O)(N3CCOCC3)CC2)nc2c(N3CCOCC3)nc(-c3cccc4[nH]ccc34)nc21
CCn1c(CN2CCN(CC(N)=O)[C@@H](C(C)C)C2)nc2c(N3CCOCC3)nc(-c3cccc4[nH]ccc34)nc21
CCn1c(CN2CC(N3CCOCC3)C2)nc2c(N3CCOCC3)nc(-c3cccc4[nH]ccc34)nc21
CCn1c(CN2CCN(C(C)C)C(=O)C2)nc2c(N3CCOCC3)nc(-c3cccc4[nH]ccc34)nc21
CC(C)(C(N)=O)N1CCN(Cc2nc3c(N4CCOCC4)nc(-c4c(F)ccc5[nH]ccc45)nc3[nH]2)CC1
CCn1c(CN2CCC(N(C)S(C)(=O)=O)CC2)nc2c(N3CCOCC3)nc(-c3cccc4[nH]ccc34)nc21
CCn1c(CN2CCC(N3CCOCC3=O)CC2)nc2c(N3CCOCC3)nc(-c3cccc4[nH]ccc34)nc21
CCn1c(CN2CCC(N3CCS(=O)(=O)CC3)CC2)nc2c(N3CCOCC3)nc(-c3c(F)ccc4[nH]ccc34)nc21
